Test results from patent US20100143405A1, “Immunotherapy of virus infection” (priority 2004, published 2010).

Columns and labels:
[1] = tested on: CTL epitope-specific CD8^+ T cells; design: species or system BALB/c mice; details: mouse, in vivo
PBMC = PBMC proliferation induced by Th epitope P25; assay type: cell-based, human
Source text: Preferably, the Th cell epitope is P25, KLIPNASLIENCTKAEL (SEQ ID No:8), from the F protein of morbillivirus (Ghosh et al, 2001). This epitope is promiscuous in all outbred dogs that have been studied by the inventors so far and also in all strains of mice and cattle examined (unpublished results). This epitope is also able to induce PBMC proliferation in at least 50% of blood samples extracted from human volunteers. The F protein is conserved across most morbilliviruses and in the case of P25 is conserved in canine distemper virus, rhinderpest and measles viruses.

Row | Substance | antigen-specific CD8+ T cell responses compared with non-lipidated peptide [1] | antigen-specific CD8+ T cells in lung and spleen compared with non-lipidated peptide [1] | blood samples from human volunteers in which PBMC proliferation is induced (PBMC)
1 | GALNNRFQIKGVELKS-K(Pam2CSS)-TYQRTRALV [lipopeptide] | not enhanced | more antigen-specific CD8^+ T cells | 
2 | KLIPNASLIENCTKAEL (Morbillivirus) [P25] |  |  | at least 50%
